According to US9492471B2, “Methods of treating a disease or disorder associated with Bruton'S Tyrosine Kinase” (Celgene Avilomics Research, Inc., priority 2013, dated 2016):
Like-named read-outs stand apart in the source and are kept apart here.

How the values were obtained:
Assay in all cases: HotSpot kinase profiling
Assay type in all cases: biochemical
[1] = target: T1, FLT3 (Homo sapiens, UniProt P36888)
T1 construct: purchased Reaction Biology Corp
T1 sequence (P36888 27-993): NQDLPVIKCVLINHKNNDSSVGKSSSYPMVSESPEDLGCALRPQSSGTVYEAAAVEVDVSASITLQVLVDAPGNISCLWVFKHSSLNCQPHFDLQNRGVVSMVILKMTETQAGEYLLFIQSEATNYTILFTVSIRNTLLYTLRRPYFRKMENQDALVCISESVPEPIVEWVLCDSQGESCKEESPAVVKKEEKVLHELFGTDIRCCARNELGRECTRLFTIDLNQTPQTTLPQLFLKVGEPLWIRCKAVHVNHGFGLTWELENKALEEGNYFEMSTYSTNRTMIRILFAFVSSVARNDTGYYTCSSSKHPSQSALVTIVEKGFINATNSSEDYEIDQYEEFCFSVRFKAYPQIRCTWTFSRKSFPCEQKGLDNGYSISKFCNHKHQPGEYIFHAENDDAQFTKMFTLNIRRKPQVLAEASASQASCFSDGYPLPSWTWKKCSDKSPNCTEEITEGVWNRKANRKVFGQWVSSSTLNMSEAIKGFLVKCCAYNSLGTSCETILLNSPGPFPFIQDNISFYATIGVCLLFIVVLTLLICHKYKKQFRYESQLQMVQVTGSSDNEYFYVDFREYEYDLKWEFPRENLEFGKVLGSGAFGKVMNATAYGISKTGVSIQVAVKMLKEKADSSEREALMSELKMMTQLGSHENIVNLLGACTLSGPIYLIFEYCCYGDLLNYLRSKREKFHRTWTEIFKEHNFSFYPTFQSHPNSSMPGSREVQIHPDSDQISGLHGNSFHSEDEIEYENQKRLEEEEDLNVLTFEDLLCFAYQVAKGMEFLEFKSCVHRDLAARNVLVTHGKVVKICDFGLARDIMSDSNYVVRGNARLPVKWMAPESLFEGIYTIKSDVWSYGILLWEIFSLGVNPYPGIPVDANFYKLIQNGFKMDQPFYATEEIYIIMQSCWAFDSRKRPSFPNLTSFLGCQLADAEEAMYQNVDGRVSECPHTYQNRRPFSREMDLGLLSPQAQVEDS
Description: (§1) The binding assay system for profiling kinase activity were based upon HotSpot technology (Reaction Biology Corp.; Malvern, Pa., USA) and utilized radio-isotope-based P81 filtration. […] Substrates for the various kinases tested against Compound 2 (substrate information available on the Reaction Biology Corp. website) were prepared fresh daily in Reaction Buffer. Any required cofactors were then added to the substrate solution. The identification and selection of the appropriate cofactor for each kinase is within the ability of a person skilled in the art. See, for example, Handbook of Assay Development in Drug Discovery, Ed. Lisa K. Minor, 2006: CRC Press, Boca Raton, Fla.; Gao et al., “A broad activity screen in support of a chemogenomic map for kinase signalling research and drug discovery,” Biochem J. 2013, 451(2): 313-28; and Eglen et al., “Drug discovery and the human kinome: Recent trends,” Pharmacology & Therapeutics 2011, 130(2): 144-156. The kinase was then added to the substrate solution and gently mixed. […] This was followed by incubation at room temperature for 2 h. The reaction was terminated and any unreacted phosphate was washed away using 0.1% phosphoric acid prior to detection utilizing a proprietary technology. […] DMSO was used as the negative control.
(§2) Percent inhibition was expressed as an average where the assay was performed more than once, e.g., in duplicate.

[2] = target: T2, CDK2/cyclin E (Homo sapiens, UniProt P24941)
T2 construct: purchased Reaction Biology Corp
Description: as §1, §2

[3] = target: T3, c-MET (Homo sapiens, UniProt P08581)
T3 construct: purchased Reaction Biology Corp
Description: as §1, §2

[4] = target: T4, ALK2/ACVR1 (Homo sapiens, UniProt Q04771)
T4 construct: purchased Reaction Biology Corp
Description: as §1, §2

[5] = target: T5, DYRK1/DYRK1A (Homo sapiens, UniProt Q13627)
T5 construct: purchased Reaction Biology Corp
Description: as §1, §2

[6] = target: T6, WEE1 (Homo sapiens, UniProt P30291)
T6 construct: purchased Reaction Biology Corp
Description: as §1, §2

[7] = target: T7, TBK1 (Homo sapiens, UniProt Q9UHD2)
T7 construct: purchased Reaction Biology Corp
T7 sequence (Q9UHD2 1-729): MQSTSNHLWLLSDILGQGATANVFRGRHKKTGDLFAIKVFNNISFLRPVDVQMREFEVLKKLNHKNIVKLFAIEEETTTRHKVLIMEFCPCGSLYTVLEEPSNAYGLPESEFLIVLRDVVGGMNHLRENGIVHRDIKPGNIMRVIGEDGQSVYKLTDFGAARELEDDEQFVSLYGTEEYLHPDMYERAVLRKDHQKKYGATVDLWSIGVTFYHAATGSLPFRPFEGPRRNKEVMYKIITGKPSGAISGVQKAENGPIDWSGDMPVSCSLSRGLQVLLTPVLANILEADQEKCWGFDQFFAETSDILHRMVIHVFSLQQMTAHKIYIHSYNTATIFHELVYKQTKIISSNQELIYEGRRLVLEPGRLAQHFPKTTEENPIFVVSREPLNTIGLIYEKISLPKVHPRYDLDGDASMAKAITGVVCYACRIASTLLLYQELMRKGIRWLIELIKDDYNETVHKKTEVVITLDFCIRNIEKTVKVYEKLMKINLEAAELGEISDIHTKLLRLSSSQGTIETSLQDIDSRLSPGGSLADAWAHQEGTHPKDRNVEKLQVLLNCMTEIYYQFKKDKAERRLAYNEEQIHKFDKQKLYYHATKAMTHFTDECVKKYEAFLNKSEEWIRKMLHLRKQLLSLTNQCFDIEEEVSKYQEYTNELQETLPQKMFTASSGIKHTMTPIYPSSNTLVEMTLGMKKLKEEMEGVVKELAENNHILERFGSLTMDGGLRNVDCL
Description: as §1, §2

[8] = target: T8, HGK/MAP4K4 (Homo sapiens, UniProt O95819)
T8 construct: purchased Reaction Biology Corp
Description: as §1, §2

[9] = read-out: % Enzyme Activity (relative to DMSO controls) Run 1
[10] = read-out: % Enzyme Activity (relative to DMSO controls) Run 2

T3 sequence (P08581 25-1390): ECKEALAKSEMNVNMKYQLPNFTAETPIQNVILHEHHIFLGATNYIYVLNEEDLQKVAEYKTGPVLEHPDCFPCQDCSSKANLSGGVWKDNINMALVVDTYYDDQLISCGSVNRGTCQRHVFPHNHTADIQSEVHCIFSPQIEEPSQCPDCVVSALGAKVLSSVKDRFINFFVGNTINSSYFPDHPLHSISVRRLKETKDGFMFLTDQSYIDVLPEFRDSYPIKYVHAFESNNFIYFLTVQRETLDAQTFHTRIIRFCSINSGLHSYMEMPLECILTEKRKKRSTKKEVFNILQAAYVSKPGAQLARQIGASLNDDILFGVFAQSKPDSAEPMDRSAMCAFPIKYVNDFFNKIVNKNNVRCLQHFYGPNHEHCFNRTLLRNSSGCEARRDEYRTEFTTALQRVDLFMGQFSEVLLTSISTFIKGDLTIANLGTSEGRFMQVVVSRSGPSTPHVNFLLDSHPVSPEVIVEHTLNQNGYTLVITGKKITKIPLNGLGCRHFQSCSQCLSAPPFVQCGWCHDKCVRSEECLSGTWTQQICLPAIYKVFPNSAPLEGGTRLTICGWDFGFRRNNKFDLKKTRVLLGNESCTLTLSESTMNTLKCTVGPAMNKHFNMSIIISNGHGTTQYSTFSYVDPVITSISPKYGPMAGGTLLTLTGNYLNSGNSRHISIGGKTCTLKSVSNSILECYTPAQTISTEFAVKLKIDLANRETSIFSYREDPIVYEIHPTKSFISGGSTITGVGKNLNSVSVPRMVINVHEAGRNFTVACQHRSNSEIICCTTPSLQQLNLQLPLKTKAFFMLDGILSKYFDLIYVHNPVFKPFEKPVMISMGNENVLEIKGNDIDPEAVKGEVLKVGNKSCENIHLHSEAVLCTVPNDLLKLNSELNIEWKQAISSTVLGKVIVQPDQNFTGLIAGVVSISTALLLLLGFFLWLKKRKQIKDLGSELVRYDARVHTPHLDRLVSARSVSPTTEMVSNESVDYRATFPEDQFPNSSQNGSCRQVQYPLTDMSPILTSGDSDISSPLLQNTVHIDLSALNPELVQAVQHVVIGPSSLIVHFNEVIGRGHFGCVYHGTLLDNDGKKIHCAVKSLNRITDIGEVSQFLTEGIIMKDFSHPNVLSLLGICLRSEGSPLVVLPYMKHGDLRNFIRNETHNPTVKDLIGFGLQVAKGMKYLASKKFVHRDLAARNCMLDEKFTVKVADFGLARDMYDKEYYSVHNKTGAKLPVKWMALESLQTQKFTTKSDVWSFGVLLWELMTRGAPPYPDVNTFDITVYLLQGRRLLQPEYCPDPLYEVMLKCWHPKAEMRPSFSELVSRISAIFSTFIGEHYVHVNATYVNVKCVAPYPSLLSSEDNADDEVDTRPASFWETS
T8 sequence (O95819 whole entry): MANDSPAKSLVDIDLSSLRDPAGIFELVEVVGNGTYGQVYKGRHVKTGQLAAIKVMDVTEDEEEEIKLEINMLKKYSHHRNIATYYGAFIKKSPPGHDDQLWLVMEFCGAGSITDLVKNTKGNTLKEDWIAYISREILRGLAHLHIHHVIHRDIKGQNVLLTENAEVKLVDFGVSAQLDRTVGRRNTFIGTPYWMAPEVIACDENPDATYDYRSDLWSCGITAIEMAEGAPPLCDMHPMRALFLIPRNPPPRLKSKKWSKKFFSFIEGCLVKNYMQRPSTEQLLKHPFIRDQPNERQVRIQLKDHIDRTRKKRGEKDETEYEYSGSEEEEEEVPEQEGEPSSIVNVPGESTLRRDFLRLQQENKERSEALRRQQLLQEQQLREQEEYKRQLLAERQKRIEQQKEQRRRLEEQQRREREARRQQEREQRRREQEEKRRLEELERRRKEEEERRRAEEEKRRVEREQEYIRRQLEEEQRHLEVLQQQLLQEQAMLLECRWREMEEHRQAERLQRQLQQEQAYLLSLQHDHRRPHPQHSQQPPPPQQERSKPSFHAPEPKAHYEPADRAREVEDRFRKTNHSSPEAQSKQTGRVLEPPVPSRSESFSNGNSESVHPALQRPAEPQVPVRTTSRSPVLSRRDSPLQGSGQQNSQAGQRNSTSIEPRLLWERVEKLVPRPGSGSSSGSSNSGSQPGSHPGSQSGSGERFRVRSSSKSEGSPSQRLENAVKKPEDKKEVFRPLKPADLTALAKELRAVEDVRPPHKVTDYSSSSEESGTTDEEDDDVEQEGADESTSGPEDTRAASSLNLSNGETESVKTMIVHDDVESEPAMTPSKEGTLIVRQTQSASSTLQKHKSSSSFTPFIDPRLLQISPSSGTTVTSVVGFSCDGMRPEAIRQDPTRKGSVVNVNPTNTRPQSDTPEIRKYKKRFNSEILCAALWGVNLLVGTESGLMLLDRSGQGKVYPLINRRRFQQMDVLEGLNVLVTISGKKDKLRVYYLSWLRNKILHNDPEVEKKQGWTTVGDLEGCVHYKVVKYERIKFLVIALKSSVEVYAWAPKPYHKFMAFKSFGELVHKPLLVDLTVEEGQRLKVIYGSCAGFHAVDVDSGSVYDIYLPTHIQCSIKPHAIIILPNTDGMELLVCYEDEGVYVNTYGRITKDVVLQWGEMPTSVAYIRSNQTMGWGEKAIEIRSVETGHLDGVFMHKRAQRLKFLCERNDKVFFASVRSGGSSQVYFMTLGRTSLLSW
T6 sequence (P30291 whole entry): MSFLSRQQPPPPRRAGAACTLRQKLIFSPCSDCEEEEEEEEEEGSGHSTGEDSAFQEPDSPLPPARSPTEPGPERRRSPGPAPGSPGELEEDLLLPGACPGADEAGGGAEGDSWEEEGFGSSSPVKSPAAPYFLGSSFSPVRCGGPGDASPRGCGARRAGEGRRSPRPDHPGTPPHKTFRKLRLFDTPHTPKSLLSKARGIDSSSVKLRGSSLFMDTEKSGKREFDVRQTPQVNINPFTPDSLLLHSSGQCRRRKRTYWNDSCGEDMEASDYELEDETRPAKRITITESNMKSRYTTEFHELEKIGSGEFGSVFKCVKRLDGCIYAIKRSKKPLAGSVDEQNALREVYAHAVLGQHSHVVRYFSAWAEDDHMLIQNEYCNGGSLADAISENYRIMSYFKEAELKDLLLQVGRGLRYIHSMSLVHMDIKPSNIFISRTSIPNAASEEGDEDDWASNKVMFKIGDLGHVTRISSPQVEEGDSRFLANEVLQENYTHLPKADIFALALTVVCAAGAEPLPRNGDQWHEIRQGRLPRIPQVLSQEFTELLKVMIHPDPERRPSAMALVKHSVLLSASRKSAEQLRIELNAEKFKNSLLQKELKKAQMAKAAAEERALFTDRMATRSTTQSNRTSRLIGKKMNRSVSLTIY
T4 sequence (Q04771 21-509): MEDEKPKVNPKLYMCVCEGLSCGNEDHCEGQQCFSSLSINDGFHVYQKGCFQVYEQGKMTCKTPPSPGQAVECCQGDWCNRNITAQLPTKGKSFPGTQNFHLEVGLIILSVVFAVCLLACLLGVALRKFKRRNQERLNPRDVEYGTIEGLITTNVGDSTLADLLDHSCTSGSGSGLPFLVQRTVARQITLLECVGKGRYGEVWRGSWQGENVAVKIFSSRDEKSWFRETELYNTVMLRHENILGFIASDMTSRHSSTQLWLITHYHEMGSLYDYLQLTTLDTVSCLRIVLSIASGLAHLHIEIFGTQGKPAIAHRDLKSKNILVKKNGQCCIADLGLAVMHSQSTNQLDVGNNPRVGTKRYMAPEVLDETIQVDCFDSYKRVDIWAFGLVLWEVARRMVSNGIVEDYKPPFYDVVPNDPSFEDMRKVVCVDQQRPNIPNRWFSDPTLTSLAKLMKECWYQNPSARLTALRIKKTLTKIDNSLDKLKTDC

C=CC(=O)Nc1cccc(Nc2nc(Nc3ccc(OCCOC)c(F)c3)ncc2F)c1 [Compound 2]
inhibition at 3 µM [1]: 96.8%
remaining activity at 3 µM [1, 9]: 3.19%
remaining activity at 3 µM [1, 10]: 3.25%
inhibition at 3 µM [2]: 10%
remaining activity at 3 µM [2, 9]: 87.9%
remaining activity at 3 µM [2, 10]: 92%
inhibition at 3 µM [3]: -1.49%
remaining activity at 3 µM [3, 9]: 103%
remaining activity at 3 µM [3, 10]: 100%
remaining activity at 3 µM [4, 9]: 385%
remaining activity at 3 µM [4, 10]: 385%
inhibition at 3 µM [5]: 12%
remaining activity at 3 µM [5, 9]: 87.7%
remaining activity at 3 µM [5, 10]: 88.4%
inhibition at 3 µM [6]: 26%
remaining activity at 3 µM [6, 9]: 73.1%
remaining activity at 3 µM [6, 10]: 74.9%
inhibition at 3 µM [7]: 41.3%
remaining activity at 3 µM [7, 9]: 58.1%
remaining activity at 3 µM [7, 10]: 59.2%
inhibition at 3 µM [8]: 1.27%
remaining activity at 3 µM [8, 9]: 98.9%
remaining activity at 3 µM [8, 10]: 98.6%
